# Measured values: paper PMC3523391 (Leukemia, 2012)
# Key:
# MOLM-13-RES cells = experiment: MTS cell viability assay, MOLM-13-RES; assay type: cell-based, human; details: ratio of in vitro viability potency, MOLM-13-RES vs MOLM-13
# [1] = single-agent phase I-II clinical trial in AML; cited from earlier work
# in vivo = experiment: in vivo; set-up: species or system mice; details: female, athymic CrTac:NCr-Fox1(nu), mouse, po, 160 mg/kg
# [2] = in mice; cited from earlier work
Compound,relative resistance of MOLM-13-RES compared with parental MOLM-13 cells (MOLM-13-RES cells),response rate [1],other results
CC(C)(C)c1cc(NC(=O)Nc2ccc(-c3cn4c(n3)sc3cc(OCCN5CCOCC5)ccc34)cc2)no1 [AC220],approximately 23 fold,–,–
CCN(CCCOc1ccc2c(Nc3cc(CC(=O)Nc4cccc(F)c4)n[nH]3)ncnc2c1)CCOP(=O)(O)O [AZD1152],–,25%,–
COc1cc2c(N3CCN(C(=O)Nc4ccc(OC(C)C)cc4)CC3)ncnc2cc1OCCCN1CCCCC1 [MLN518],–,–,concentration at 1 h after the last dose (in vivo): ~200 nM; concentration at 6 h after the last dose (in vivo): ~40 nM; plasma protein binding [2]: 80%
COc1cc(Nc2ncc3c(n2)-c2ccc(Cl)cc2C(c2c(F)cccc2OC)=NC3)ccc1C(=O)O [MLN8237],–,17%,–
CNC(=O)c1cc(Oc2ccc(NC(=O)Nc3ccc(Cl)c(C(F)(F)F)c3)cc2)ccn1 [Sorafenib],approximately 60 fold,–,–
